Assays:
[1] = test system: Amaranthus caudatus var. atropurpurea explants (cotyledons and hypocotyl); assay: Amaranthus bioassay (betacyanin formation); settings: for activity (%) [10^−5 mol. l^−1 iP = 100%]: at the concentration with highest activity; for concentration with highest activity: betacyanin formation, 48 h in darkness
Method: The standard Amaranthus bioassay with several modifications was used to study cytokinin activity of the novel compounds. The seeds of Amaranthus caudatus var. atropurpurea were surface-sterilised in 10% (w/v) N-chlorobenzenesulfonamide for 10 min and washed 5 times with deionized water. They were placed in 14 cm Petri dishes containing paper tissues saturated with deionized water. After 72 h of cultivation at 25° C. in darkness, the roots of the seedlings were cut off. The explants, consisting of two cotyledons and hypocotyl, were placed in 5 cm Petri dishes onto two layers of filter paper soaked with 1 ml of the incubation medium containing 10 μmol of Na2HPO4—KH2PO4, pH 6.8, 5 μmol of tyrosine and the cytokinin to be tested. There were 20 explants per dish. The procedure was carried out under a green safe light in a darkroom. After 48 h of incubation at 25° C. in darkness, betacyanin was extracted by freezing the explants in 4 ml […] acetic acid. The concentration of betacyanin was determined from the absorbances at 537 nm and 620 nm as follows: ΔA=A537 nm−A620 nm. The values ΔA were plotted against the concentration tested, are means of five replicates and the entire test was repeated twice. […] The compounds to be tested were dissolved in dimethylsulfoxide (DMSO) and the solution brought up to 10^−3 M with distilled water. […] The activity obtained for 10^−5 M iP was postulated as 100%.

[2] = test system: cytokinin-dependent tobacco callus Nicotiana tabacum L. cv. Wisconsin 38; assay: cytokinin-dependent tobacco callus bioassay (plant cell division); type: cell-based; settings: for activity (%) [10^−5 mol. l^−1 iP = 100%] / activity (%) [10^−6 mol. l^−1 Kin = 100%]: at the concentration with highest activity; for activity (%) [10^−5 mol. l^−1 iP = 100%]: relative to 10^−5 M iP; for effect on callus growth (cell proliferation) in high concentrations: concentrations exceeding 10 μM, up to 100 μM, FIG. 1; for activity (%) [10^−6 mol. l^−1 Kin = 100%]: relative to 10^−6 M Kin; for concentration with highest activity: growth of tobacco callus, fresh weight after four weeks
Method: Stimulatory effect of newly prepared derivatives was tested using cytokinin-dependent tobacco callus. The cytokinin-dependent tobacco callus Nicotiana tabacum L. cv. Wisconsin 38 was maintained at 25° C. in darkness on modified MS medium, containing per 1 liter: 4 μmol of nicotinic acid, 2.4 μmol of pyridoxine hydrochloroide, 1.2 μmol of thiamine, 26.6 μmol of glycine, 1.37 μmol of glutamine, 1.8 μmol of myo-inositol, 30 g of sucrose, 8 g of agar, 5.37 μmol of NAA and 0.5 μmol of the compound tested. Subcultivation was carried out every three weeks. Fourteen days before the bioassay, the callus tissue was transferred to the media without the compound tested. The biological activity was determined from the increase of the fresh callus weight after four weeks of cultivation. Six replicates were prepared for each concentration of the compound tested and the entire test was repeated twice. […] The compounds to be tested were dissolved in dimethylsulfoxide (DMSO) and the solution brought up to 10^−3 M with distilled water. […] From the obtained data, the concentration with the highest activity was selected for each compound tested. Relative activity of the compound at this concentration was calculated (Table 2). The activity obtained for 10^−6 M of the N9-unsubstituted parent cytokinins Kin and 10^−5 M iP, respectively, was postulated as 100% biological activity. […] For comparison, compounds bearing halogenbutyl substituent in position 9 were prepared and tested.
Cytokinins are known to have stimulatory effects on cell proliferation in their optimal concentrations, however typically in the concentrations exceeding 10 μM their effect on cell division turns into inhibitory (Holub et al., Plant Growth Regul. 26, 109-115, 1998). Therefore the effect of the high concentrations of the newly prepared derivatives was tested using cytokinin-dependent tobacco callus described in Example 6. The novel compounds 1, 2 and 4 were tested in high concentrations (1-100 μM) and the activities were compared with activities of their N9-unsubstituted parent cytokinins.

[3] = test system: detached leaf segments of Triticum aestivum cv. Hereward; assay: senescence bioassay on detached wheat leaf segments in dark conditions (chlorophyll retention); settings: for concentration with highest activity: 96 h, 25° C., chlorophyll A665; for activity (%) [10^−4 mol. l^−1 Kin = 100%]: at the concentration with highest activity
Method: (§1) Seeds of winter wheat, Triticum aestivum cv. Hereward, were washed under running water for 24 hours and then sown on vermiculite soaked with Knop's solution. They were placed in the growth chamber at 25° C. with a 16/8 h light period at 50 μmol·m^−2·s^−1. After 7 days, the first leaf was fully developed and the second leaf had started to grow. A tip section of the first leaf, approximately 35 mm long, was removed from 5 seedlings and trimmed slightly to a combined weight of 100 mg. The basal ends of the five leaf tips were placed in the wells of a microtiter polystyrene plate containing 150 μL of the tested derivative solution each. The entire plate was inserted into a plastic box lined with paper tissues soaked in distilled water to prevent leaf sections from drying out. After 96 h incubation in the dark at 25° C., the leaves were removed and chlorophyll extracted by heating at 80° C. for 10 min in 5 mL of 80% ethanol (v/v). The sample volume was then restored to 5 mL by the addition of 80% ethanol (v/v). The absorbance of the extract was recorded at 665 nm. In addition, chlorophyll extracts from fresh leaves and leaf tips incubated in deionised water were measured. The results are means of five replicates and the entire test was repeated twice. […] The compounds to be tested were dissolved in dimethylsulfoxide (DMSO) and the solution brought up to 10^−3M with distilled water. […] The activity obtained for 10^−4 M Kin was postulated as 100%.

[4] = test system: detached leaf segments of Triticum aestivum cv. Hereward; assay: senescence bioassay on detached wheat leaf segments in light conditions (chlorophyll retention); settings: for concentration with highest activity: constant light 100 μmol·m^−2·s^−1, 22° C.; for activity (%) [10^−4 mol. l^−1 Kin = 100%]: light, at the concentration with highest activity
Method: as §1
The ability of the novel compounds to retard chlorophyll degradation in detached wheat leaves was tested also in the light conditions. The experiment was performed as described in Example 7 with modifications as follows—the incubation of the leaves with the compounds was done in the constant light (100 μmol·m^−2·s^−1) at 22° C.

VP14 gene = assay: expression of VP14 stress gene in intact maize plants (RT-PCR); type: in vivo, Zea mays; settings: 5 μM; for Relative amount of transcripts, leaf / Relative amount of transcripts, root: 3 days, related to untreated control = 1; for effect on VP14 expression / stress response: in words
Method: Abscisic acid has a direct effect on up-regulation of genes involved in stress responses (Tan et al., 1997, Proc Natl Acad Sci USA, 94, 12235-40). 5-days-old maize seedlings were carefully transferred from substrate to nutrient solution supplemented with tested compound in 5 μM concentration and were cultivated for another 3 days. Transcript copy number of VP14 gene was determined in roots and leaves of treated plants independently by method of reverse transcription polymerase chain reaction.

[5] = test system: Zea mays cv. CELLUX seedlings; assay: root growth and development of maize seedlings in hydroponics; type: in vivo; settings: FIG. 3
Method: To investigate in vivo effect of the new derivatives on the root growth and development, maize seeds (Zea mays cv. CELLUX, Morseva, Czech Republic) were imbibed in tap water and germinated in dark on a wetted filter paper. After 2 days, the germinated seedlings were transferred to aerated hydroponic tanks filled with Hoagland's nutrient solution (fifteens per one liter of Hoagland solution). The plants were grown in a chamber with 16 hrs light (250 μm-2 s-1) at 27° C. and 8 hrs dark period at 20° C. The nutrient solution was supplemented with 5 μM and 10 μM concentration of 6-furfurylamino-9-(2-chloroethyl)purine or 5 μM cytokinin kinetin (Kin). All solutions used for cytokinin treatment including negative control contained DMSO in final concentration of 0.01%.

[6] = test system: membrane lipid peroxidation in detached leaves of Triticum aestivum cv. Hereward; assay: membrane lipid peroxidation (MDA, TBA method) in detached wheat leaves during dark senescence
Method: A typical symptom associated with senescence as a direct consequence of increased reactive oxygen species is lipid peroxidation. Therefore the levels of MDA, a decomposition product of lipid peroxidation, were measured in detached wheat leaves that were exposed to the prepared novel derivatives and kinetin for four days in the dark as described in Example 7. MDA levels were measured using a thiobarbituric acid (TBA) method. In detail, 100 mg of fresh plant material was homogenized by high speed shaking in a ball mill (MM301, Retsch, Germany) with 1 mL of 80% methanol. The crude extract was centrifuged at 10,000×g for 5 min, and 100 μL aliquot of supernatant was vortexed with 100 μL of 0.5% (w/v) TBA containing 0.1% (w/v) trichloroacetic acid, and the resulting solution was then incubated for 30 min at 95° C. The samples were quickly cooled on ice and recentrifuged for 5 min at 1000×g. The absorbance of supernatant was measured at 532 nm with background subtraction at 600 nm and the amount of MDA-TBA complex was calculated from the coefficient of absorbance 155 mM^−1 cm^−1.

SMILES	effect on callus growth (cell proliferation) in high concentrations [2]	concentration with highest activity [3]	activity (%) [10^−4 mol. l^−1 Kin = 100%] [3]	activity (%) [10^−6 mol. l^−1 Kin = 100%] [2]	concentration with highest activity [4]	activity (%) [10^−4 mol. l^−1 Kin = 100%] [4]	other results
CC(C)=CCNc1ncnc2nc[nH]c12 [6-(3-methylbut-2-en-1-yl)aminopurine, reference compound]	inhibited strongly the callus growth	–	–	–	–	–	activity (%) [10^−5 mol. l^−1 iP = 100%] [1]: 100%; concentration with highest activity [1]: 10^−5 mol. l^−1; activity (%) [10^−5 mol. l^−1 iP = 100%] [2]: 100%
BrCCCCn1cnc2c(NCc3ccco3)ncnc21 [6-furfurylamino-9-(4-bromobutyl)purine, reference compound]	–	10^−4 mol. l^−1	1.2 (±2) %	45 (±8) %	10^−4 mol. l^−1	60 (±16) %	–
ClCCCCn1cnc2c(NCc3ccco3)ncnc21 [6-furfurylamino-9-(4-chlorobutyl)purine, reference compound]	–	10^−4 mol. l^−1	72 (±13) %	62 (±7) %	10^−4 mol. l^−1	119 (±6) %	–
c1coc(CNc2ncnc3nc[nH]c23)c1 [6-furfurylaminopurine (Kin), 6-furfurylaminopurine, reference compound]	inhibited strongly the callus growth	10^−4 mol. l^−1	100%	100%	10^−4 mol. l^−1	100%	Relative amount of transcripts, leaf (VP14 gene): 16.3 (±4.0); Relative amount of transcripts, root (VP14 gene): 3.4 (±0.8); effect on VP14 expression / stress response (VP14 gene): significantly increases VP14 expression in both root and leaves of maize; root and shoot phenotype of maize plants ([5]; 5 μM in nutrient solution): dramatic thickening and shortening of primary root with no lateral root formation
ClCCn1cnc2c(NCc3ccco3)ncnc21 [Compound 1, 6-furfurylamino-9-(2-chloroethyl)purine]	still kept their stimulatory effect	10^−4 mol. l^−1	120 (±15) %	120 (±6) %	10^−5 mol. l^−1	116 (±7) %	Relative amount of transcripts, leaf (VP14 gene): 1.1 (±0.3); Relative amount of transcripts, root (VP14 gene): 0.4 (±0.1); effect on VP14 expression / stress response (VP14 gene): does not induce any stress response; root and shoot phenotype of maize plants ([5]; 5 μM in nutrient solution): almost identical to DMSO treated negative control; root and shoot phenotype of maize plants ([5]; 10 μM in nutrient solution): only slightly reduced length of primary and lateral roots; level of membrane lipid peroxidation reduced to ([6]; dark senescence, compared to untreated control): 67%; MDA ([6]; detached wheat leaves, four days in the dark, untreated control 18.9 (±2.2)): 12.8 (±1.0) nmol/g FW
BrCCn1cnc2c(NCc3ccco3)ncnc21 [Compound 2, 6-furfurylamino-9-(2-bromoethyl)purine]	–	10^−4 mol. l^−1	102 (±3) %	110 (±3) %	10^−4 mol. l^−1	121 (±8) %	–
CC(C)=CCNc1ncnc2c1ncn2CCBr [Compound 3, 6-[(3-methylbut-2-en-1-yl)amino]-9-(2-bromoethyl)purine]	–	–	–	–	–	–	activity (%) [10^−5 mol. l^−1 iP = 100%] [1]: 116 (±9) %; concentration with highest activity [1]: 10^−4 mol. l^−1; activity (%) [10^−5 mol. l^−1 iP = 100%] [2]: 103 (±4) %
CC(C)=CCNc1ncnc2c1ncn2CCCl [Compound 4, 6-[(3-methylbut-2-en-1-yl)amino]-9-(2-chloroethyl)purine]	still kept their stimulatory effect	–	–	–	–	–	activity (%) [10^−5 mol. l^−1 iP = 100%] [1]: 128 (±11) %; concentration with highest activity [1]: 10^−4 mol. l^−1; activity (%) [10^−5 mol. l^−1 iP = 100%] [2]: 112 (±7) %
COc1cccc(CNc2ncnc3c2ncn3CCCl)c1 [Compound 38]	–	10^−4 mol. l^−1	116 (±7) %	106 (±5) %	–	–	concentration with highest activity [2]: 10^−5 mol. l^−1
Oc1cccc(CNc2ncnc3c2ncn3CCCl)c1 [Compound 47]	–	10^−4 mol. l^−1	111 (±9) %	111 (±2) %	–	–	concentration with highest activity [2]: 10^−5 mol. l^−1
C/C(=C\C(C)Nc1ncnc2c1ncn2CCCl)CO (stereo not drawn) [Compound 136, 6-(E)-(4-hydroxy-1,3-dimethylbut-2-en-1-ylamino)-9-(2-chloroethyl)purine]	–	10^−4 mol. l^−1	114 (±4) %	115 (±7) %	–	–	–
